Experimental data: PMC8317065, “UPLC-MS/MS Method for Analysis of Endocannabinoid and Related Lipid Metabolism in Mouse Mucosal Tissue” (Frontiers in Physiology, 2021)

System: FAE metabolism
Assay: THL oral gavage: levels of FAEs in jejunum mucosa, lung and plasma
Type: in vivo, mouse
Method: Adult C57BL/6J male mice were food-deprived for 24 h prior to harvest with ad libitum access to water. To prevent coprophagia, animals were maintained on elevated wire-bottom cages for a 72-hour acclimation period and during the 24-hour food deprivation. One hour prior to harvest, mice received an oral gavage (100 μL of 10 mg/mL) of the DGL inhibitor, THL, in polyethylene glycol (PEG) or PEG alone as control. Jejunum intestinal epithelium and lungs were harvested as described above (see section “Tissue Harvest and Preparation for Enzyme Assays”).
Frozen tissue samples were weighed and homogenized in 1.0 mL of methanol containing the internal standards [^2H5]-2-AG (500 pmol), [^2H4]-AEA (1 pmol), and [^2H4]-OEA (10 pmol). Lipids were extracted using chloroform (2.0 mL) prior to being washed with 1.0 mL 0.2-micron ultra-purified water. Following centrifugation (1,500 × g, 15 min, 4°C), the lower organic phase was collected and dried under N2 steam (99.998% pure). A second chloroform wash (1.0 mL) was then performed followed by another centrifugation (1,500 × g, 15 min, 4°C) and collection of the lower phase. Samples were reconstituted in 2.0 mL of chloroform and purified via open-bed silica gel column chromatography. Columns were washed with a 9:1 chloroform:methanol mixture to elute MAGs and FAEs for collection. Collected eluates were dried under N2 steam (99.998% pure) and resuspended in 0.2 mL of methanol:chloroform (1:1) prior to analysis via UPLC-MS/MS (see section “Quantitation of MAGs and FAEs”).
Data was acquired using equipment described above (see section “UPLC-MS/MS Detection of Analytes”) and using the elution protocol described above (see section “Quantitation of MAG Biosynthetic Enzyme Activity Assay Products”). Cone voltage and collision energy for each analyte are as follows, respectively: AEA = 30 v, 14 v; [^2H4]-AEA = 26 v, 16v; OEA = 28 v, 16 v; [^2H4]-OEA = 48 v, 14 v; DHEA = 30 v, 50 v; 2-AG (20:4) = 30 v, 12 v; [^2H5]-2-AG = 25 v, 44v; 2-DG (22:6) = 34 v, 14 v; 2-PG (16:0) = 18 v, 10 v; 2-OG (18:1) = 42 v, 10 v; 2-LG (18:2) = 30 v, 10 v. MS/MS detection was in positive ion mode and capillary voltage set at 0.1 kV. Extracted ion chromatograms were used to quantify AEA (m/z = 348.3 > 62.0), [^2H4]-AEA (m/z = 352.3 > 66.1), OEA (m/z = 326.4 > 62.1), [^2H4]-OEA (m/z = 330.4 > 66.0), DHEA (m/z = 372.3 > 91.0), 2-AG (m/z = 379.3 > 287.3), [^2H5]-2-AG (m/z = 384.3 > 93.4), 2-DG (m/z = 403.3 > 311.1), 2-PG (m/z = 331.3 > 239.3), 2-OG (m/z = 357.4 > 265.2), and 2-LG (m/z = 355.3 > 263.3). Quantitation occurred using a stable isotope dilution method to detect protonated adducts of the ions [M + H] + in MRM mode. Acyl migration is known to occur in many MAG species following silica-gel purification, therefore the sum of 1-AG and 2-AG, 1-PG and 2-PG, 1-OG and 2-OG, and 1-DG and 2-DG are reported ([Stella et al., 1997]). The established lower limit of quantitation (LLOQ: signal to noise ratio >10) for 2-AG, 2-DG, 2-PG, 2-OG, and 2-LG was 0.5 pmol. The LLOQ for AEA, OEA, and DHEA was 0.008 pmol.

[1] = THL 1 mg oral, 1 h prior to tissue harvest

## CCCCCCCCCCC[C@@H](C[C@@H]1OC(=O)[C@H]1CCCCCC)OC(=O)[C@H](CC(C)C)NC=O [THL, tetrahydrolipstatin]
THL 1 mg oral gavage 1 h prior to harvest, vehicle 2.85 ± 0.29
  AEA level in jejunum mucosa: 2.41 ± 0.24 pmol/g
THL 1 mg oral gavage 1 h prior to harvest, vehicle 3.14 ± 0.14
  AEA level in lung: 2.85 ± 0.08 pmol/g
THL 1 mg oral gavage 1 h prior to harvest, vehicle 3.76 ± 0.07
  AEA level in plasma: 3.11 ± 0.50 pmol/mL
THL 1 mg oral gavage 1 h prior to harvest, vehicle 6.41 ± 0.76
  DHEA level in plasma: 5.62 ± 0.43 pmol/mL
THL 1 mg oral gavage 1 h prior to harvest, vehicle 14.25 ± 2.18
  DHEA level in lung: 16.13 ± 1.19 pmol/g
THL 1 mg oral gavage 1 h prior to harvest, vehicle 14.53 ± 1.25
  DHEA level in jejunum mucosa: 18.97 ± 5.08 pmol/g
THL 1 mg oral gavage 1 h prior to harvest, vehicle 41.19 ± 3.84
  OEA level in plasma: 36.12 ± 2.36 pmol/mL
THL 1 mg oral gavage 1 h prior to harvest, vehicle 52.23 ± 6.73
  OEA level in jejunum mucosa: 46.83 ± 9.00 pmol/g
THL 1 mg oral gavage 1 h prior to harvest, vehicle 92.06 ± 4.99
  OEA level in lung: 83.75 ± 3.44 pmol/g
[1]
  effect on levels of FAEs in jejunum mucosa vs vehicle: no changes
  effect on levels of FAEs in lung tissue vs vehicle: no changes
  effect on plasma concentrations of FAEs vs vehicle: unaffected
